Data on 28 molecules can be found in patent US8343961B2, “Substituted heterocyclic compounds” (ArQule, Inc., priority 2009, dated 2013).

SMILES strings stand for the structures.

The target in the experiment is T1, Tec kinase (Homo sapiens, UniProt P42680).
T1 sequence (P42680 1-631): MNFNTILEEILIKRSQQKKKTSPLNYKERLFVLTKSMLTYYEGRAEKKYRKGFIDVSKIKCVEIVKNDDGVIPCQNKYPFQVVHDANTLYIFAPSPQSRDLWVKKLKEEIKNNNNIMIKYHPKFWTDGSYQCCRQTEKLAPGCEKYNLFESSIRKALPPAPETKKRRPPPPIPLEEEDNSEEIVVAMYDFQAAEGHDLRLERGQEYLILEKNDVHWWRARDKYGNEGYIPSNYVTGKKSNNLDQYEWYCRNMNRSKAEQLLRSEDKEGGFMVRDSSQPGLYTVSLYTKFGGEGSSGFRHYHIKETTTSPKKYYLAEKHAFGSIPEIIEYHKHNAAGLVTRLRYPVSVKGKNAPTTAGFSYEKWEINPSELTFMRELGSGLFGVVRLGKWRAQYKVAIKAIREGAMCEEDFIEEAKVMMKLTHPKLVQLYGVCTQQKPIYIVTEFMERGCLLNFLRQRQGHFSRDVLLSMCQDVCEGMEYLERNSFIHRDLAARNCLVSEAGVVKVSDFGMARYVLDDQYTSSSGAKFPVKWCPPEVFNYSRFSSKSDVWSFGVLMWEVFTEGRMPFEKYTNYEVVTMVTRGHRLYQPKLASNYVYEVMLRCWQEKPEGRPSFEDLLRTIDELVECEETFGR
Kind of experiment: Tec Kinase Activity Assay. It counts as biochemical. Particulars: read-out: Tec % INH, at 30 uM. On the procedure:
The disclosed compounds were assayed for their ability to inhibit the activity of Tec kinase. Nunc Maxisorb plates were coated with streptavidin by overnight incubation with 100 μL per well of 1 μg/mL Streptavidin in DPBS. Prior to the start of the experiment, the plates were washed with TBST (3×200 μL) and blocked for at least 1 hour by adding 150 μL of 5% BSA/TBST. The plates were washed with TBST (3×200 μL/well) and left dry immediately before the capture step.
The test articles and controls (Staurosporine and Sutent) were prepared using the following assay buffer @ 3× desired final concentration (50 mM Tris-HCl, 0.02 mg/mL BSA, 10 mM MgCl2, 0.1 mM Na3VO4, 1 mM EGTA, 75 μM ATP0.01% NP-40, 2 mM DTT in 10% glycerol/water). In a reaction plate were added rapidly 20 μL test article (or control) and 20 μL TEC 0.25 ng/4. The plate was incubated for 30 minutes. To the reaction plate was added 20 μL of Pyk-2.5 ng/μL. The plate was incubated at room temperature for two hours. From the reaction plate, 50 μL was transferred to the streptavidin coated plate. The capture plate was incubated at room temperature for 30 minutes then washed 6× with TBST. To the capture plate was added 100 μL/well of Cell Signaling anti-phospho tyrosine at a dilution of 1:3000 in 2% BSA/TBST. The plate was incubated for one hour at room temperature then washed 6× with TBST. To the capture plate was added 100 μL/well of Alkaline Phosphatase Tagged Goat anti Mouse Antibody at a dilution of 1:4000 in 2% BSA/TBST. The plate was incubated for one hour at room temperature then washed 6× with TBST. The fluorescent readout was initiated by the addition of 100 μL/well of Attophos reagent (6 mg/10 mL). The reading was done on the Perkin Elmer Envision system.
With `Cc1ccccc1CN1CCN(c2nc(N)nc3[nH]ncc23)Cc2ccccc21` [Compound 12, 4-[1-(2-methylbenzyl)-1,2,3,5-tetrahydro-4H-1,4-benzodiazepin-4-yl]-1H-pyrazolo[3,4-d]pyrimidin-6-amine], the inhibition at 30 µM lay within 50 to 79%.
As for `Nc1nc(N2CCN(Cc3ccc(F)c(F)c3)c3ccccc3C2)c2cn[nH]c2n1` [Compound 47, 4-[1-(3,4-difluorobenzyl)-1,2,3,5-tetrahydro-4H-1,4-benzodiazepin-4-yl]-1H-pyrazolo[3,4-d]pyrimidin-6-amine], the figure is 50 to 79%; as for `COc1ccc(OC)c(CN2CCN(c3nc(N)nc4[nH]cnc34)Cc3ccccc32)c1` [Compound 35, 6-[1-(2,5-dimethoxybenzyl)-1,2,3,5-tetrahydro-4H-1,4-benzodiazepin-4-yl]-9H-purin-2-amine], 50 to 79%; as for `Nc1nc(N2CCN(Cc3ccc(Cl)c(Cl)c3)c3ccccc3C2)c2nc[nH]c2n1` [Compound 42, 6-[1-(3,4-dichlorobenzyl)-1,2,3,5-tetrahydro-4H-1,4-benzodiazepin-4-yl]-9H-purin-2-amine], less than 50%.
As for `COc1cc2c(cc1OC)C(c1cccc(Cl)c1F)N(c1nc(N)nc3[nH]cnc13)CC2` (stereo not shown) [Compound 49, 6-[1-(3-chloro-2-fluorophenyl)-6,7-dimethoxy-3,4-dihydroisoquinolin-2(1H)-yl]-9H-purin-2-amine], the inhibition at 30 µM was less than 50%.
As for `Cc1cccc(CN2CCN(c3nc(N)nc4[nH]ncc34)Cc3ccccc32)c1` [Compound 34, 4-[1-(3-methylbenzyl)-1,2,3,5-tetrahydro-4H-1,4-benzodiazepin-4-yl]-1H-pyrazolo[3,4-d]pyrimidin-6-amine], the figure is 50 to 79%.
As to `COc1cccc(CN2CCN(c3nc(N)nc4[nH]ncc34)Cc3ccccc32)c1` [Compound 1, 4-[1-(3-methoxybenzyl)-1,2,3,5-tetrahydro-4H-1,4-benzodiazepin-4-yl]-1H-pyrazolo[3,4-d]pyrimidin-6-amine], the inhibition at 30 µM was more than 79%.
As for `Nc1nc(N2CCN(Cc3ccc(F)cc3F)c3ccccc3C2)c2nc[nH]c2n1` [Compound 37, 6-[1-(2,4-difluorobenzyl)-1,2,3,5-tetrahydro-4H-1,4-benzodiazepin-4-yl]-9H-purin-2-amine], the figure is 50 to 79%.
As for `COc1cccc(CN2CCN(c3nc(N)nc4[nH]cnc34)Cc3ccccc32)c1` [Compound 2, 6-[1-(3-methoxybenzyl)-1,2,3,5-tetrahydro-4H-1,4-benzodiazepin-4-yl]-9H-purin-2-amine], the figure is 50 to 79%; as for `Nc1nc(N2CCN(Cc3ccc(F)cc3)c3ccccc3C2)c2cn[nH]c2n1` [Compound 16, 4-[1-(4-fluorobenzyl)-1,2,3,5-tetrahydro-4H-1,4-benzodiazepin-4-yl]-1H-pyrazolo[3,4-d]pyrimidin-6-amine], 50 to 79%.
As for `COc1cc2c(cc1OC)C(CCc1ccccc1)N(c1nc(N)nc3[nH]ncc13)CC2` (stereo not shown) [Compound 51, 4-[6,7-dimethoxy-1-(2-phenylethyl)-3,4-dihydroisoquinolin-2(1H)-yl]-1H-pyrazolo[3,4-d]pyrimidin-6-amine], the figure is less than 50%; as for `Cc1ccc(CN2CCN(c3nc(N)nc4[nH]cnc34)Cc3ccccc32)cc1` [Compound 26, 6-[1-(4-methylbenzyl)-1,2,3,5-tetrahydro-4H-1,4-benzodiazepin-4-yl]-9H-purin-2-amine], less than 50%; as for `Nc1nc(N2CCN(Cc3ccc(F)cc3)c3ccccc3C2)c2nc[nH]c2n1` [Compound 15, 6-[1-(4-fluorobenzyl)-1,2,3,5-tetrahydro-4H-1,4-benzodiazepin-4-yl]-9H-purin-2-amine], 50 to 79%.
For the molecule `Cc1ccccc1CN1CCN(c2nc(N)nc3[nH]cnc23)Cc2ccccc21` [Compound 11, 6-[1-(2-methylbenzyl)-1,2,3,5-tetrahydro-4H-1,4-benzodiazepin-4-yl]-9H-purin-2-amine], the inhibition at 30 µM was 50 to 79%.
As for `Cc1ccc(CCCN2CCN(c3nc(N)nc4[nH]ncc34)Cc3ccccc32)cc1` [Compound 45, 4-{1-[3-(4-methylphenyl)propyl]-1,2,3,5-tetrahydro-4H-1,4-benzodiazepin-4-yl}-1H-pyrazolo[3,4-d]pyrimidin-6-amine], the figure is more than 79%.
As for `Nc1nc(N2CCN(Cc3cccc4ccccc34)c3ccccc3C2)c2nc[nH]c2n1` [Compound 17, 6-[1-(1-naphthylmethyl)-1,2,3,5-tetrahydro-4H-1,4-benzodiazepin-4-yl]-9H-purin-2-amine], the figure is 50 to 79%; as for `CC(C)c1ccc(CN2CCN(c3nc(N)nc4[nH]ncc34)Cc3ccccc32)cc1` [Compound 4, 4-[1-(4-isopropylbenzyl)-1,2,3,5-tetrahydro-4H-1,4-benzodiazepin-4-yl]-1H-pyrazolo[3,4-d]pyrimidin-6-amine], 50 to 79%.
As for `Nc1nc(N2CCN(CCCc3ccccc3)c3ccccc3C2)c2cn[nH]c2n1` [Compound 41, 4-[1-(3-phenylpropyl)-1,2,3,5-tetrahydro-4H-1,4-benzodiazepin-4-yl]-1H-pyrazolo[3,4-d]pyrimidin-6-amine], the figure is 50 to 79%; as for `Nc1nc(N2CCN(CCCc3ccccc3)c3ccccc3C2)c2nc[nH]c2n1` [Compound 40, 6-[1-(3-phenylpropyl)-1,2,3,5-tetrahydro-4H-1,4-benzodiazepin-4-yl]-9H-purin-2-amine], more than 79%.
As to `CC(C)c1ccc(CN2CCN(c3nc(N)nc4[nH]cnc34)Cc3ccccc32)cc1` [Compound 3, 6-[1-(4-isopropylbenzyl)-1,2,3,5-tetrahydro-4H-1,4-benzodiazepin-4-yl]-9H-purin-2-amine], the inhibition at 30 µM was less than 50%.
As to `Cc1ccc(CCCN2CCN(c3nc(N)nc4[nH]cnc34)Cc3ccccc32)cc1` [Compound 44, 6-{1-[3-(4-methylphenyl)propyl]-1,2,3,5-tetrahydro-4H-1,4-benzodiazepin-4-yl}-9H-purin-2-amine], the inhibition at 30 µM was less than 50%.
As for `Nc1nc(N2CCN(Cc3cccc(F)c3)c3ccccc3C2)c2cn[nH]c2n1` [Compound 6, 4-[1-(3-fluorobenzyl)-1,2,3,5-tetrahydro-4H-1,4-benzodiazepin-4-yl]-1H-pyrazolo[3,4-d]pyrimidin-6-amine], the figure is 50 to 79%; as for `Nc1nc(N2CCN(CCCc3cccc(Cl)c3)c3ccccc3C2)c2nc[nH]c2n1` [Compound 7, 6-{1-[3-(3-chlorophenyl)propyl]-1,2,3,5-tetrahydro-4H-1,4-benzodiazepin-4-yl}-9H-purin-2-amine], 50 to 79%.
For the molecule `Nc1nc(N2CCN(Cc3ccc(Cl)cc3Cl)c3ccccc3C2)c2nc[nH]c2n1` [Compound 31, 6-[1-(2,4-dichlorobenzyl)-1,2,3,5-tetrahydro-4H-1,4-benzodiazepin-4-yl]-9H-purin-2-amine], the inhibition at 30 µM is less than 50%.
As to `Nc1nc(N2CCN(Cc3cccc(Cl)c3)c3ccccc3C2)c2cn[nH]c2n1` [Compound 25, 4-[1-(3-chlorobenzyl)-1,2,3,5-tetrahydro-4H-1,4-benzodiazepin-4-yl]-1H-pyrazolo[3,4-d]pyrimidin-6-amine], the inhibition at 30 µM lay in the range of 50 to 79%.
As to `Cc1cccc(CN2CCN(c3nc(N)nc4[nH]cnc34)Cc3ccccc32)c1` [Compound 33, 6-[1-(3-methylbenzyl)-1,2,3,5-tetrahydro-4H-1,4-benzodiazepin-4-yl]-9H-purin-2-amine], the inhibition at 30 µM is less than 50%.
As for `Nc1nc(N2CCN(Cc3ccccc3Cl)c3ccccc3C2)c2nc[nH]c2n1` [Compound 13, 6-[1-(2-chlorobenzyl)-1,2,3,5-tetrahydro-4H-1,4-benzodiazepin-4-yl]-9H-purin-2-amine], the figure is less than 50%.
As for `COc1ccccc1CN1CCN(c2nc(N)nc3[nH]cnc23)Cc2ccccc21` [Compound 9, 6-[1-(2-methoxybenzyl)-1,2,3,5-tetrahydro-4H-1,4-benzodiazepin-4-yl]-9H-purin-2-amine], the figure is 50 to 79%.
